Assay results as given in patent US4684664A, “Derivatives of β-(4-isocyano-1,2,3,4-diepoxycyclopentyl) acrylic acid” (Kureha Kagaku Kogyo Kabushiki Kaisha, priority 1984, dated 1987).
Values after ≈ are worked out from the molar mass of the structure shown.

Tests used:
Format in all cases: cell-based
[1] = tested on: Staphylococcus aureus FDA 209PJc-1; assay: Antibacterial activity, agar-dilution MIC, organism No. 1; conditions: Staphylococcus aureus, FDA209PJC1, read-out: Minimum Inhibitory Concentration
In short: (§1)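 An agar-dilution procedure on bouillon-agar medium was applied, and each MIC was recorded as micrograms of specimen per ml of medium.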

[2] = tested on: Staphylococcus aureus Terajima; assay: Antibacterial activity, agar-dilution MIC, organism No. 2; conditions: Staphylococcus aureus, read-out: Minimum Inhibitory Concentration
In short: as §1

[3] = tested on: Staphylococcus aureus MS 353; assay: Antibacterial activity, agar-dilution MIC, organism No. 3; conditions: Staphylococcus aureus, MS353, read-out: Minimum Inhibitory Concentration
In short: as §1

[4] = tested on: Streptococcus pyogenes Cook; assay: Antibacterial activity, agar-dilution MIC, organism No. 4; conditions: Streptococcus pyogenes, read-out: Minimum Inhibitory Concentration
In short: as §1

[5] = tested on: Escherichia coli NIHJ-JC-2; assay: Antibacterial activity, agar-dilution MIC, organism No. 5; conditions: Escherichia coli, NIHJJC2, read-out: Minimum Inhibitory Concentration
In short: as §1

[6] = tested on: Escherichia coli K12 C600 IAM 1264; assay: Antibacterial activity, agar-dilution MIC, organism No. 6; conditions: Escherichia coli, IAM1264, read-out: Minimum Inhibitory Concentration
In short: as §1

[7] = tested on: Klebsiella pneumoniae PCI-602; assay: Antibacterial activity, agar-dilution MIC, organism No. 7; conditions: Klebsiella pneumoniae, PCI602, read-out: Minimum Inhibitory Concentration
In short: as §1

[8] = tested on: Salmonella typhimurium IID 971; assay: Antibacterial activity, agar-dilution MIC, organism No. 8; conditions: Salmonella enterica, read-out: Minimum Inhibitory Concentration
In short: as §1

Salmonella typhi 901 = assay: Antibacterial activity, agar-dilution MIC, organism No. 9; conditions: Salmonella enterica, TYPHI, read-out: Minimum Inhibitory Concentration
In short: as §1

[9] = tested on: Salmonella paratyphi-A 1015; assay: Antibacterial activity, agar-dilution MIC, organism No. 10; conditions: Salmonella enterica, PARATYPHI, read-out: Minimum Inhibitory Concentration
In short: as §1

[10] = tested on: Salmonella shottmuelleri 8006; assay: Antibacterial activity, agar-dilution MIC, organism No. 11; conditions: Salmonella, 8006, read-out: Minimum Inhibitory Concentration
In short: as §1

[11] = tested on: Salmonella enteritidis G 14; assay: Antibacterial activity, agar-dilution MIC, organism No. 12; conditions: Salmonella enterica, ENTERITIDIS, read-out: Minimum Inhibitory Concentration
In short: as §1

[12] = tested on: Serratia marcescens IAM 1184; assay: Antibacterial activity, agar-dilution MIC, organism No. 13; conditions: Serratia marcescens, IAM1184, read-out: Minimum Inhibitory Concentration
Source text: Agar-dilution method was used for determination of the antibacterial activity and antifungal activity while using bouillon-agar culture medium, and the minimum inhibitory concentration of the specimen was expressed by μg/ml of the culture medium.

[13] = tested on: Bacillus subtilis ATCC 6633; assay: Antibacterial activity, agar-dilution MIC, organism No. 14; conditions: Bacillus subtilis, ATCC6633, read-out: Minimum Inhibitory Concentration
In short: as §1

[14] = tested on: Pseudomonas aeruginosa IFO 3445; assay: Antibacterial activity, agar-dilution MIC, organism No. 15; conditions: Pseudomonas aeruginosa, IFO3445, read-out: Minimum Inhibitory Concentration
In short: as §1

[15] = tested on: Pseudomonas aeruginosa NCTC 10490; assay: Antibacterial activity, agar-dilution MIC, organism No. 16; conditions: Pseudomonas aeruginosa, NCTC10490, read-out: Minimum Inhibitory Concentration
In short: as §1

[16] = tested on: Pseudomonas aeruginosa PAO 1; assay: Antibacterial activity, agar-dilution MIC, organism No. 17; conditions: Pseudomonas aeruginosa, PAO1, read-out: Minimum Inhibitory Concentration
In short: as §1

[17] = tested on: Proteus morganii IFO 3848; assay: Antibacterial activity, agar-dilution MIC, organism No. 18; conditions: Morganella morganii, IFO3848, read-out: Minimum Inhibitory Concentration
In short: as §1

[18] = tested on: Proteus mirabilis IFO 3849; assay: Antibacterial activity, agar-dilution MIC, organism No. 19; conditions: Proteus mirabilis, IFO3849, read-out: Minimum Inhibitory Concentration
In short: as §1

Proteus vulgaris OX-19 = assay: Antibacterial activity, agar-dilution MIC, organism No. 20; conditions: Proteus vulgaris, OX19, read-out: Minimum Inhibitory Concentration
In short: as §1

Proteus vulgaris HX-19 = assay: Antibacterial activity, agar-dilution MIC, organism No. 21; conditions: Proteus vulgaris, HX19, read-out: Minimum Inhibitory Concentration
In short: as §1

[19] = tested on: Proteus rettgeri IFO 3850; assay: Antibacterial activity, agar-dilution MIC, organism No. 22; conditions: Providencia rettgeri, IFO3850, read-out: Minimum Inhibitory Concentration
In short: as §1

[20] = tested on: Enterobacter aerogenes ATCC 13048; assay: Antibacterial activity, agar-dilution MIC, organism No. 23; conditions: Klebsiella aerogenes, ATCC13048, read-out: Minimum Inhibitory Concentration
In short: as §1

Enterobacter cloacae 963 = assay: Antibacterial activity, agar-dilution MIC, organism No. 24; conditions: Enterobacter cloacae, 963, read-out: Minimum Inhibitory Concentration
In short: as §1

[21] = tested on: Micrococcus luteus ATCC 9341; assay: Antibacterial activity, agar-dilution MIC, organism No. 25; conditions: Micrococcus luteus, ATCC9341, read-out: Minimum Inhibitory Concentration
In short: as §1

[22] = tested on: Streptococcus pyogenes IFO 3340; assay: Antibacterial activity, agar-dilution MIC, organism No. 26; conditions: Streptococcus pyogenes, IFO3340, read-out: Minimum Inhibitory Concentration
In short: as §1

[23] = tested on: Streptococcus faecium IFO 3826; assay: Antibacterial activity, agar-dilution MIC, organism No. 27; conditions: Enterococcus faecium, IFO3826, read-out: Minimum Inhibitory Concentration
In short: as §1

[24] = tested on: Candida albicans IAM 4905; assay: Antifungal activity, agar-dilution MIC, organism No. 29; conditions: Candida albicans, IAM4905, read-out: Minimum Inhibitory Concentration
In short: as §1

[25] = tested on: Aspergillus niger IFO 6342; assay: Antifungal activity, agar-dilution MIC, organism No. 30; conditions: Aspergillus niger, IFO6342, read-out: Minimum Inhibitory Concentration
In short: as §1

Structure (SMILES) | MIC [1] | MIC [2] | MIC [3] | MIC [4] | MIC [5] | MIC [6] | MIC [7] | MIC [8] | MIC (Salmonella typhi 901) | MIC [9] | MIC [10] | MIC [11] | MIC [12] | MIC [13] | MIC [14] | MIC [15] | MIC [16] | MIC [17] | MIC [18] | MIC (Proteus vulgaris OX-19) | further results
[C-]#[N+]C12CC3(/C=C/C(=O)Nc4ccc(O)cc4)OC3C1O2 (stereo not shown) [compound 56] | 1.56 µg/mL (≈ 5.49 µM) | 6.25 µg/mL (≈ 22 µM) | 1.56 µg/mL (≈ 5.49 µM) | 25 µg/mL (≈ 87.9 µM) | 25 µg/mL (≈ 87.9 µM) | 25 µg/mL (≈ 87.9 µM) | 1.56 µg/mL (≈ 5.49 µM) | 12.5 µg/mL (≈ 44 µM) | 6.25 µg/mL (≈ 22 µM) | 3.13 µg/mL (≈ 11 µM) | 3.13 µg/mL (≈ 11 µM) | 6.25 µg/mL (≈ 22 µM) | 50 µg/mL (≈ 176 µM) | 12.5 µg/mL (≈ 44 µM) | > 200 µg/mL | > 200 µg/mL | > 200 µg/mL | 1.56 µg/mL (≈ 5.49 µM) | 12.5 µg/mL (≈ 44 µM) | 3.13 µg/mL (≈ 11 µM) | MIC (Proteus vulgaris HX-19): 1.56 µg/mL (≈ 5.49 µM); MIC [19]: 3.13 µg/mL (≈ 11 µM); MIC [20]: > 200 µg/mL; MIC (Enterobacter cloacae 963): 200 µg/mL (≈ 704 µM); MIC [21]: 0.78 µg/mL (≈ 2.74 µM); MIC [22]: 3.13 µg/mL (≈ 11 µM); MIC [23]: 50 µg/mL (≈ 176 µM); MIC [24]: 25 µg/mL (≈ 87.9 µM); MIC [25]: 50 µg/mL (≈ 176 µM)
[C-]#[N+]C12CC3(/C=C/C(=O)NCCO)OC3C1O2 (stereo not shown) [compound 68] | 3.13 µg/mL (≈ 13.2 µM) | 25 µg/mL (≈ 106 µM) | 6.25 µg/mL (≈ 26.5 µM) | 200 µg/mL (≈ 847 µM) | 25 µg/mL (≈ 106 µM) | 25 µg/mL (≈ 106 µM) | 200 µg/mL (≈ 847 µM) | 25 µg/mL (≈ 106 µM) | 6.25 µg/mL (≈ 26.5 µM) | 12.5 µg/mL (≈ 52.9 µM) | 25 µg/mL (≈ 106 µM) | 6.25 µg/mL (≈ 26.5 µM) | 100 µg/mL (≈ 423 µM) | 100 µg/mL (≈ 423 µM) | > 200 µg/mL | > 200 µg/mL | > 200 µg/mL | 6.25 µg/mL (≈ 26.5 µM) | 200 µg/mL (≈ 847 µM) | 12.5 µg/mL (≈ 52.9 µM) | MIC (Proteus vulgaris HX-19): 6.25 µg/mL (≈ 26.5 µM); MIC [19]: 200 µg/mL (≈ 847 µM); MIC [20]: > 200 µg/mL; MIC (Enterobacter cloacae 963): > 200 µg/mL; MIC [21]: 6.25 µg/mL (≈ 26.5 µM); MIC [22]: 12.5 µg/mL (≈ 52.9 µM); MIC [23]: 200 µg/mL (≈ 847 µM); MIC [24]: 100 µg/mL (≈ 423 µM); MIC [25]: 100 µg/mL (≈ 423 µM)
